pIC50: −log10 of the molar value. Counter-ions that a name gives are not always drawn.
How the values were obtained:
[1] = Acute toxicity in mice (sub-cutaneous, lethality within 6 hours); conditions: mouse, in vivo, sc; for selectivity ratio: LD50 divided by ED50 (acetylcholine esterase ex vivo), read-out: Therapeutic Ratio (LD/AC); for LD50 at 6 h: sub-cutaneous, mice, within 6 hours
Experimental: Drugs were administered sub-cutaneously in at least 3 doses, to a minimum of 10 mice per dose. […] Therapeutic Ratio was calculated as LD50 divided by ED50(acetylcholine esterase ex vivo).

mice = assay: Survival time of mice in hypobaric hypoxic episode; assay type: in vivo
Text: The model is based on that described in Nakanishi, M. et al. Life Sci. (1973) 13: 467; Oshiro, et al., J. Med. Chem. (1991) 34: 2004-2013; and US Patent 4,788,130.
A 12 liter desiccator (desiccator A) and a 2.5 liter desiccator (desiccator B) were separately connected to a vacuum pump. Desiccator B was disconnected and allowed to equilibrate with room air whilst desiccator A was evacuated to a pressure of 100mmHg. Four male ICR albino mice (22-28g) were placed in desiccator B. Desiccator B was then closed to room air and connected to desiccator A. The pressure inside desiccator B was monitored using a mercury manometer and at the point the pressure in desiccator B reached 200mmHg (usually within 14 seconds), the two desiccators were disconnected from the vacuum pump and the pump switched off. The survival time from the moment of induction of hypoxia to the time of cessation of respiration was recorded. for each mouse for a maximum of 15 minutes after which time room air was reintroduced to desiccator B. Survivors were monitored for signs of lethargy or vitality.
Effect of drug treatment was assessed as the percent of the survival time of the drug treated group with respect to the saline injected or vehicle injected control group. Control groups were run twice, before and after each experimental group and consisted of 8 mice in groups of 4 mice to ensure a constant residual volume of oxygen in all tests. The effect of each dose of test drug was determined in duplicate i.e. two groups of 4 mice.
Positive reference drugs were sodium pentobarbital at a dose of 40 mg/kg, and diazepam 10 mg/kg given 0.5h prior to hypoxia, physostigmine 0.2 and 0.4 mg/kg and neostigmine 0.2 mg/kg given sc 30 min before hypoxia. Methyl atropine 1 mg/kg was given sc. 10 min. before physostigmine.
The volume of injection was 0.2-0.3 mL per mouse (10 mL/kg). The initial dose was about one third of the reported LD50 for acetylcholine esterase inhibition. If no protection could be obtained, the dose was further increased to the nearest non-toxic dose. In case of protection, the dose was further reduced in an attempt to locate the "protective" dose range.

MAO-B = target: T1, MAO-B (Rattus norvegicus, UniProt P19643); assay: Inhibition of MAO activity in vitro, rat brain homogenate, PEA substrate; assay type: biochemical; parameters: The MAO enzyme source was a homogenate of rat brain in 0.3M sucrose; from tissue; host or cells: rat brain homogenate (600G supernatant); conditions: PEA 50µM
T1 sequence (P19643 1-520): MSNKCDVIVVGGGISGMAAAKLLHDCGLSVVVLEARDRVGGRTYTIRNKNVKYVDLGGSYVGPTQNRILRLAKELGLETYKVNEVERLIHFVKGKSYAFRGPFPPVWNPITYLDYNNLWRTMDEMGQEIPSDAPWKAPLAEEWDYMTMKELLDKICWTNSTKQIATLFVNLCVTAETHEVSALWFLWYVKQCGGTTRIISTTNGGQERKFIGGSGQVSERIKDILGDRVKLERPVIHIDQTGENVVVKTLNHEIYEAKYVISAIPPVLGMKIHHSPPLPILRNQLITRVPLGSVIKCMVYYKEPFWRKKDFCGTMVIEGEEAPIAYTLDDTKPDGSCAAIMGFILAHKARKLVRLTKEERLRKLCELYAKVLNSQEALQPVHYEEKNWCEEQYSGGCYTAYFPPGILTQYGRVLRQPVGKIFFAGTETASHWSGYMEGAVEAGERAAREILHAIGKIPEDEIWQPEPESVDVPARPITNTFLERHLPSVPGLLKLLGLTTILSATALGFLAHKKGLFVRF
Experimental: The MAO enzyme source was a homogenate of rat brain in 0.3M sucrose, which was centrifuged at 600G for 15 minutes. The supernatant was diluted appropriately in 0.05M phosphate buffer, and pre-incubated with serial dilutions of test compounds for 20 minutes at 37°C. ^14C-Labeled substrates (2-phenylethylamine, hereinafter PEA; 5-hydroxytryptamine, hereinafter 5-HT) were then added, and the incubation continued for a further 20 minutes (PEA), or 30-45 minutes (5-HT). Substrate concentrations used were 50µM (PEA) and 1mM (5-HT). In the case of PEA, enzyme concentration was chosen so that not more than 10% of the substrate was metabolized during the course of the reaction. The deaminated products were extracted into toluene-ethyl acetate (1:1, v/v) containing 0.6% (w/v) 2,5-diphenyloxazole prior to determination by liquid scintillation counting. Radioactivity in the eluate indicates the production of neutral and acidic metabolites formed as a result of MAO activity. Activity of MAO in the sample was expressed as a percentage of control activity in the absence of inhibitors after subtraction of appropriate blank values The activity determined using PEA as substrate is referred to as MAO-B, and that determined using 5-HT as MAO-A.

[2] = target: T2, Human erythrocyte acetylcholinesterase (Homo sapiens, UniProt P22303); assay: In vitro measurement of acetylcholinesterase (AChE) inhibition (Ellman method); assay type: biochemical; conditions: at time of peak activity, incubation 15 to 60 minutes at 37°C
T2 construct: Human erythrocyte acetylcholinesterase (type XIII, Sigma Israel); purchased Sigma Israel type XIII; host or cells: human erythrocytes
Experimental: Human erythrocyte acetylcholinesterase (type XIII, Sigma Israel), was prepared in a stock solution of 1U/ml, containing Triton (1%) and bovine serum albumin (0.05%) in phosphate buffer (pH 8). The enzyme (0.05U) was incubated with 3-5 different concentrations of test compound (in triplicate) for periods of from 15 to 60 minutes at 37°C. […] The percentage inhibition of AChE by each concentration of drug is calculated by comparison with that of enzyme in the absence of drug.

[3] = 4.1 mg/kg sc, 60 min before hypoxia
[4] = 6.2 mg/kg sc, 60 min before hypoxia

T2 sequence (P22303 32-617 isoform P22303-2 limits assumed): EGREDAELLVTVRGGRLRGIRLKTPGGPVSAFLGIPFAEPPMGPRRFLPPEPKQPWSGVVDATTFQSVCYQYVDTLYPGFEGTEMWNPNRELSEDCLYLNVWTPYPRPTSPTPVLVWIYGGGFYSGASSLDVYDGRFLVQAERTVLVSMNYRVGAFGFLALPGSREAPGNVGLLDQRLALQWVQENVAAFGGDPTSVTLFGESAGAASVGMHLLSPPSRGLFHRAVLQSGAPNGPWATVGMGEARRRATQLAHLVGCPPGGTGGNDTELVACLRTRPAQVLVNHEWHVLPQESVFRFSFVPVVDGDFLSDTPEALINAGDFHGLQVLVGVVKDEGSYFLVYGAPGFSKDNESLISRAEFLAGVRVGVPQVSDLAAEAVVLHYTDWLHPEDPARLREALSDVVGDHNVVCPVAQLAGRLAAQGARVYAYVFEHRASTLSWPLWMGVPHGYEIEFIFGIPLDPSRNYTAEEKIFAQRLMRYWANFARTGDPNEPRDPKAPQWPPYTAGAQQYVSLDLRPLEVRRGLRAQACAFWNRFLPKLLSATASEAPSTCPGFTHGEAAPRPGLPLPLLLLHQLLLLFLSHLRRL

Row | Structure (SMILES) | selectivity ratio [1] | LD50 at 6 h [1] | Protection (% of control) (mice; 2 mg/kg sc, 30 min before hypoxia) | Protection (% of control) (mice; 2 mg/kg sc, 60 min before hypoxia) | Protection (% of control) (mice; 4.1 mg/kg sc, 30 min before hypoxia) | Protection (% of control) (mice; [3]) | Protection (% of control) (mice; [4]) | pIC50 (MAO-B) | pIC50 [2] | Protection (% of control) (mice; 4.5 mg/kg sc, 60 min before hypoxia) | Protection (% of control) (mice; 7 mg/kg sc, 60 min before hypoxia) | Protection (% of control) (mice; 15 mg/kg sc, 60 min before hypoxia) | Protection (% of control) (mice; 31 mg/kg sc, 60 min before hypoxia) | Protection (% of control) (mice; 62 mg/kg sc, 60 min before hypoxia) | Protection (% of control) (mice; 94 mg/kg sc, 60 min before hypoxia)
1 | C#CCNCCc1cccc(OC(=O)N(C)C)c1 [Compound 11] | 13.8 | 44.2 µmol/kg | 302±212 % of control | 128±40 % of control | 501±201 % of control | 416±211 % of control | 331±168 % of control | 4.60 | 6.09 | – | – | – | – | – | –
2 | C#CCN(C)CCc1cccc(OC(=O)N(C)C)c1 [Compound 12] | 11.5 | 46 µmol/kg | – | – | – | – | – | 5.60 | 6.06 | 97±36 % of control | 217±120 % of control | – | – | – | –
3 | C#CCNC(C)Cc1cccc(OC(=O)N(C)C)c1 (centres unmarked) [Compound 16] | 18.3 | 42 µmol/kg | – | – | – | 335±202 % of control | 324±155 % of control | 5.22 | 6.43 | – | – | toxic | – | – | –
4 | C#CCNC(C)Cc1cccc(OC(=O)N(C)CC)c1 (stereo not drawn) [Compound 17, 3-(N-Me,N-Etcarbamyloxy)α-methyl, N-propargyl phenethylamine.HCl] | 9.4 | 600 µmol/kg | – | – | – | – | – | 5.70 | 4.44 | – | – | – | 149±44 % of control | 419±122 % of control | 281±158 % of control

Source: EP0951284B1, “[…] DERIVATIVES” (priority 1996, dated 1998)
